Measurements from patent US11365188B2, “JAK inhibitors” (priority 2018, dated 2022).
Where a name gives a salt, the structure may show the parent alone.

Experiments:
Type in all cases: biochemical
JAK3 = target: T1, JAK3 (Homo sapiens, UniProt P52333); assay: JAK3 Assay (Caliper EZ Reader, fluoresceinated peptide); settings: ATP 3.5 μM; JAK3 0.5 nM; 30 minutes at room temperature; read-out: JAK3 inhibition
T1 sequence (P52333 1-1124): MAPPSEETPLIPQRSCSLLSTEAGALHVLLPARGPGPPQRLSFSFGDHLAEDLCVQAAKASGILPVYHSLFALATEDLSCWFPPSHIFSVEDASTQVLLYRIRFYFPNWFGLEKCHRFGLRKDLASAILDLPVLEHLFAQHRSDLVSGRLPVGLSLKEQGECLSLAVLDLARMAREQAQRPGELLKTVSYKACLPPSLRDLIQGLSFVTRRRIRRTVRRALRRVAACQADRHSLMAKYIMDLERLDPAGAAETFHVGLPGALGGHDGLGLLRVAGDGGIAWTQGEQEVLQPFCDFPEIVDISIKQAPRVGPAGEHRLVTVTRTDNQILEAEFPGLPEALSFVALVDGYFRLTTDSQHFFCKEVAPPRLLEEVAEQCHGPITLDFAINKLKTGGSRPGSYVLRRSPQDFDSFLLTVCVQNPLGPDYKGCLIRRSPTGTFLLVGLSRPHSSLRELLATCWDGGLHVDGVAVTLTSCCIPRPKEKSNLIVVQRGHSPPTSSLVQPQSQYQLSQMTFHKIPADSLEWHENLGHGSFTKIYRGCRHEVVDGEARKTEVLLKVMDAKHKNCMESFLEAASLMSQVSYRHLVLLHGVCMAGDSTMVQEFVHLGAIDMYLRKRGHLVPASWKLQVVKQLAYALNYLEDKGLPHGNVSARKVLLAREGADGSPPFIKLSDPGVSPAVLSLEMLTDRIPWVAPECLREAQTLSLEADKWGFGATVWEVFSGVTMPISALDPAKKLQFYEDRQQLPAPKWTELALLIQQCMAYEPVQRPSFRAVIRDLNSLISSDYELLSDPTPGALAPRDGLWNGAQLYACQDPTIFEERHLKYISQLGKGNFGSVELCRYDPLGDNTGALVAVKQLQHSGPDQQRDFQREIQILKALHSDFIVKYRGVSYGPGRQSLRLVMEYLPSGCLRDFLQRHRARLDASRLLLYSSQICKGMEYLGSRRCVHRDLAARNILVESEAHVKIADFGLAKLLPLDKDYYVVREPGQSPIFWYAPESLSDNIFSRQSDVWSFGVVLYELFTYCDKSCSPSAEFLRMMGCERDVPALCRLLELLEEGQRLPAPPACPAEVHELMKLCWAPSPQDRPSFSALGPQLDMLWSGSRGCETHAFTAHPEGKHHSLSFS
Procedure: JAK3 Assay 384-well plates in the left foot butoxy measured progress. The final assay volume was 25 μL, 250 nL 100× compounds, 10 μL enzyme mix and 15 μL substrate mix (fluoresceinated peptide and ATP) in assay buffer (50 mM HEPES (pH 7.5), 10 mM MgCl2, 0.01% TritonX-100, 0.01% Brij35, 0.5 mM EGTA and 2 mM DTT) prepared as test compound. By mixing the JAK3 with substrates and test compounds to start the reaction. The reaction mixture was incubated for 30 minutes at room temperature, then added 30 μL stop buffer for each sample to terminate the reaction with 50 mM EDTA. After termination of the kinase reaction, the proportion of phosphorylated product was determined as a fraction of total peptide substrate using Caliper EZ Reader II. Inhibition data were calculated by comparison with 100% of the reaction mixture without enzyme inhibition and vehicle-only reaction mixture billion % inhibition compared. The final concentration of reagents in the assays is: ATP, 3.5 μM; JAK3 fluorescent peptide (5-FAM-EEPLYWSFPAKKK-CONH2), 3 μM; JAK3, 0.5 nM; and DMSO, 1%. Dose response curve were generated to determine the concentration required for IC50 of JAK3 activity.

JAK2 = JAK2 (Homo sapiens, UniProt O60674); assay: JAK2 Assay (Caliper EZ Reader, fluoresceinated peptide); settings: ATP 11.4 μM; JAK2 0.25 nM; 15 minutes at room temperature; read-out: JAK2 inhibition
Procedure: JAK2 Assay 384-well plates in the left foot butoxy measured progress. The final assay volume was 25 μL, 250 nL 100× compounds, 10 μL enzyme mix and 15 μL substrate mix (fluoresceinated peptide and ATP) in assay buffer (50 mM HEPES (pH 7.5), 10 mM MgCl2, 0.01% TritonX-100, 0.01% Brij35, 0.5 mM EGTA and 2 mM DTT) prepared as test compound By mixing the JAK2 with substrates and test compounds to start the reaction. The reaction mixture was incubated for 15 minutes at room temperature, then added 30 μL stop buffer for each sample to terminate the reaction with 50 mM EDTA. After termination of the kinase reaction, the proportion of phosphorylated product was determined as a fraction of total peptide substrate using Caliper EZ Reader 1 Inhibition data were calculated by comparison with 100% of the reaction mixture without enzyme inhibition and vehicle-only reaction mixture billion % inhibition compared. The final concentration of reagents in the assays is: ATP, 11.4 μM; JAK2 fluorescent peptide (5-FAM-EEPLYWSFPAKKK-CONH2), 3 μM; JAK2, 0.25 nM; and DMSO, 1%. Dose response curve were generated to determine the concentration required for IC50 of JAK2 activity.

JAK1 = JAK1 (Homo sapiens, UniProt P23458); assay: JAK Kinase Assay (JAK1, Caliper EZ Reader, fluoresceinated peptide); settings: ATP 76.5 μM; JAK1 10 nM; 120 minutes at room temperature; read-out: JAK1 inhibition
Procedure: JAK Kinase Assay 384-well plates in the left foot butoxy measured progress. The final assay volume was 25 μL, 250 nL 100× compounds, 10 μL enzyme mix and 15 μL substrate mix (fluoresceinated peptide and ATP) in assay buffer (20 mM HEPES (pH 7.5), 10 mM MgCl2, […], 0.5 mM EGTA and 2 mM DTT) prepared as test compound. By mixing the JAK1 with substrates and test compounds to start the reaction. There action mixture was incubated for 120 minutes at room temperature, then added 30 μL stop buffer for each sample to terminate the reaction with 50 mM EDTA. After termination of the kinase reaction, the proportion of phosphorylated product was determined as a fraction of total peptide substrate using Caliper EZ Reader II. Inhibition data were calculated by comparison with 100% of the reaction mixture without enzyme inhibition and vehicle-only reaction mixture billion % inhibition compared. The final concentration of reagents in the assays is: ATP, 76.5 μM; JAK1 fluorescent peptide (5-FAM-EEPLYWSFPAKKK-CONH2), 3 μM; JAK1, 10 nM, and DMSO, 1%. Dose response curve were generated to determine the concentration required for IC50 of JAK activity.

Chain of JAK1 (P23458 whole entry, species assumed): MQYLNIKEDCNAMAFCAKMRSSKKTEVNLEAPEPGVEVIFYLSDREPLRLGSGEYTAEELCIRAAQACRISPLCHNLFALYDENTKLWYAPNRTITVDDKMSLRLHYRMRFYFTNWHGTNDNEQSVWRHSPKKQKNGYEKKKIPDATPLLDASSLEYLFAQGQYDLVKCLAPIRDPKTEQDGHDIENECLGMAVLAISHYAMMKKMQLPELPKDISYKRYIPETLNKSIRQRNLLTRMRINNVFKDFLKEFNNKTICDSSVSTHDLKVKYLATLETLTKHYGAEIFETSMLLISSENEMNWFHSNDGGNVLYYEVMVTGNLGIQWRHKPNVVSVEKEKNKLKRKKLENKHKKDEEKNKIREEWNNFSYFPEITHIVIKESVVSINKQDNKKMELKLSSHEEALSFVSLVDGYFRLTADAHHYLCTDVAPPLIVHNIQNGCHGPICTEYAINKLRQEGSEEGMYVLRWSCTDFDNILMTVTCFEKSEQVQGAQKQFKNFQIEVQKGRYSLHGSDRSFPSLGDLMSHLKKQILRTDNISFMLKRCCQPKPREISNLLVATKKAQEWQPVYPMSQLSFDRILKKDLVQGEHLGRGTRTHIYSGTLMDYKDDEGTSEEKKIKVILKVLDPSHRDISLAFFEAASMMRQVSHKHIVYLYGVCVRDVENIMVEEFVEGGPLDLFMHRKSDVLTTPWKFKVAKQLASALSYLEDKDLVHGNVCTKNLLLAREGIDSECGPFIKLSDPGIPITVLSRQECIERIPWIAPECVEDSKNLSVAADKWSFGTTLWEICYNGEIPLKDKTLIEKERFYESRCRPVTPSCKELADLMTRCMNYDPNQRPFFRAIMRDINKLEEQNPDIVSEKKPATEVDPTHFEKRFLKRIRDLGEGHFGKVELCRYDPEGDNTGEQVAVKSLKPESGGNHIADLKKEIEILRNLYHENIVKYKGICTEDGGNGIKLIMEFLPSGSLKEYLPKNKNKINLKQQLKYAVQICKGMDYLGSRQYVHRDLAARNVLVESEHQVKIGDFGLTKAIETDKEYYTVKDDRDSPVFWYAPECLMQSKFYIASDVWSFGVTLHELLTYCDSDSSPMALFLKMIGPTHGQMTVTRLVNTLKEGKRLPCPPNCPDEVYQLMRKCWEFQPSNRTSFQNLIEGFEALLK
Chain of JAK2 (O60674 whole entry, species assumed): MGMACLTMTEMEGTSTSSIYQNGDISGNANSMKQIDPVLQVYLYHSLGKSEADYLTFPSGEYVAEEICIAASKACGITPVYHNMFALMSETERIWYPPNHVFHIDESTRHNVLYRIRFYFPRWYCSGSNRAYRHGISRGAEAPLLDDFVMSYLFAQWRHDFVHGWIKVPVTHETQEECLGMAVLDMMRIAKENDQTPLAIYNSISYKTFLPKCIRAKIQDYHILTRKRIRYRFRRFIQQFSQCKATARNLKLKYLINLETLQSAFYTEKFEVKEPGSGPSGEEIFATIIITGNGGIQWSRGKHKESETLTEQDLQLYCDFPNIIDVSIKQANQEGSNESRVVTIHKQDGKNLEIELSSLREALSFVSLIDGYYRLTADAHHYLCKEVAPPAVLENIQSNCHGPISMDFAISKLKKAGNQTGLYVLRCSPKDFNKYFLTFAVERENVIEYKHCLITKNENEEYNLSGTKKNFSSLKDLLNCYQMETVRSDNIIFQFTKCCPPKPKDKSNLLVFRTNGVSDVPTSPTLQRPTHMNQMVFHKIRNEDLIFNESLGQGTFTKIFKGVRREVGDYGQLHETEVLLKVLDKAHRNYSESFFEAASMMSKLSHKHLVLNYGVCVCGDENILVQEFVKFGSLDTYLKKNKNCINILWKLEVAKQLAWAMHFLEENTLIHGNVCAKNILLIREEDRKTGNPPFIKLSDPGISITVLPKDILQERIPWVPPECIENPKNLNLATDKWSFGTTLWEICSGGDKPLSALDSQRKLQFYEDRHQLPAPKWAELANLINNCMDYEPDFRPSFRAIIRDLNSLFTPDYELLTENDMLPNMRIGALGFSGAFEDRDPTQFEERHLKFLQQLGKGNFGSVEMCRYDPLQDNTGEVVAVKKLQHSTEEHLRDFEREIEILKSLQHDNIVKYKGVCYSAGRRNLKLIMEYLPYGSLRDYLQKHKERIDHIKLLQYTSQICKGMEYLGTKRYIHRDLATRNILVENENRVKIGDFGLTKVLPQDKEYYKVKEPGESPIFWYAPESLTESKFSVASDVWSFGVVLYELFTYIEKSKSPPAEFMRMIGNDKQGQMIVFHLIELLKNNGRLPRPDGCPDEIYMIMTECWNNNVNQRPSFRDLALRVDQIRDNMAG

| SMILES | IC50 (JAK3) [µM] | IC50 (JAK2) [µM] | IC50 (JAK1) [µM] |
| --- | --- | --- | --- |
| CN(c1ncnc2[nH]ccc12)C1CCC2(CC1)CCN(C(=O)CCC#N)CC2 [Compound 81, 4-{9-[Methyl-(7H-pyrrolo[2,3-d]pyrimidin-4-yl)-amino]-3-aza-spiro[5.5]undec-3-yl}-4-oxo-butyronitrile] | 0.1 to 1 | 0.1 to 1 | 0.1 to 1 |
| CN(c1ncnc2[nH]ccc12)C1CC2(C1)CN(C(=O)c1ccc(C3CC3)cc1)C2 [Compound 39, (4-cyclopropylphenyl)(6-(methyl(7H-pyrrolo[2,3-d]pyrimidin-4-yl)amino)-2-azaspiro[3.3]heptan-2-yl)methanone] | 1 to 10 | 0.1 to 1 | 0.01 to 0.1 |
| CN(c1ncnc2[nH]ccc12)C1CC2(C1)CN(C(=O)CC#N)C2 [Compound 2, 3-(6-(methyl(7H-pyrrolo[2,3-d]pyrimidin-4-yl)amino)-2-azaspiro[3.3]heptan-2-yl)-3-oxopropanenitrile] | 1 to 10 | 0.1 to 1 | 0.1 to 1 |
| CN(c1ncnc2[nH]ccc12)C1CCC2(CC1)CCN(C(=O)c1cccc(OC(F)(F)F)c1)CC2 [Compound 101, {9-[Methyl-(7H-pyrrolo[2,3-d]pyrimidin-4-yl)-amino]-3-aza-spiro[5.5]undec-3-yl}-(3-trifluoromethoxy-phenyl)-methanone] | 1 to 10 | 0.1 to 1 | 0.1 to 1 |
| CC(=O)N1CC2(CC(N(C)c3ncnc4[nH]ccc34)C2)C1 [Compound 4, 1-(6-(methyl(7H-pyrrolo[2,3-d]pyrimidin-4-yl)amino)-2-azaspiro[3.3]heptan-2-yl)ethanone] | ≥ 10 | 0.1 to 1 | 0.1 to 1 |
| CN(c1ncnc2[nH]ccc12)C1CCC2(CC1)CCN(C(=O)CC#N)CC2 [Compound 104, 3-{9-[Methyl-(7H-pyrrolo[2,3-d]pyrimidin-4-yl)-amino]-3-aza-spiro[5.5]undec-3-yl}-3-oxo-propionitrile] | 1 to 10 | 1 to 10 | 1 to 10 |
| CN(c1ncnc2[nH]ccc12)C1CC2(C1)CN(C(=O)c1ccc3c(c1)ncn3C)C2 [Compound 49, (6-(methyl(7H-pyrrolo[2,3-d]pyrimidin-4-yl)amino)-2-azaspiro[3.3]heptan-2-yl)(1-methyl-1H-benzo[d]imidazol-5-yl)methanone] | ≥ 10 | 1 to 10 | 1 to 10 |
| CN(c1ncnc2[nH]ccc12)C1CC2(C1)CN(C(=O)c1cnn(C3CC3)c1)C2 [Compound 69, (1-Cyclopropyl-1H-pyrazol-4-yl)-{6-[methyl-(7H-pyrrolo[2,3-d]pyrimidin-4-yl)-amino]-2-aza-spiro[3.3]hept-2-yl}-methanone] | ≥ 10 | 1 to 10 | 0.1 to 1 |
| CC#Cc1ccc(C(=O)N2CC3(CC(N(C)c4ncnc5[nH]ccc45)C3)C2)cc1 [Compound 42, (6-(methyl(7H-pyrrolo[2,3-d]pyrimidin-4-yl)amino)-2-azaspiro[3.3]heptan-2-yl)(4-(prop-1-yn-1-yl)phenyl)methanone] | 1 to 10 | 0.01 to 0.1 | ≤ 0.01 |
| CN(c1ncnc2[nH]ccc12)C1CCC2(CC1)CCN(C(=O)c1cc3ccccc3s1)CC2 [Compound 105, Benzo[b]thiophen-2-yl-{9-[methyl-(7H-pyrrolo[2,3-d]pyrimidin-4-yl)-amino]-3-aza-spiro[5.5]undec-3-yl}-methanone] | 1 to 10 | 0.1 to 1 | 0.1 to 1 |
| CCOC(=O)N1CC2(CC(N(C)c3ncnc4[nH]ccc34)C2)C1 [Compound 8, ethyl 6-(methyl(7H-pyrrolo[2,3-d]pyrimidin-4-yl)amino)-2-azaspiro[3.3]heptane-2-carboxylate] | 1 to 10 | 1 to 10 | 0.1 to 1 |
| CCCC(=O)N1CCC2(CCC(N(C)c3ncnc4[nH]ccc34)CC2)CC1 [Compound 100, 1-{9-[Methyl-(7H-pyrrolo[2,3-d]pyrimidin-4-yl)-amino]-3-aza-spiro[5.5]undec-3-yl}-butan-1-one] | 1 to 10 | 0.1 to 1 | 0.1 to 1 |
| C#Cc1ccc(C(=O)N2CC3(CC(N(C)c4ncnc5[nH]ccc45)C3)C2)nc1 [Compound 48, (5-ethynylpyridin-2-yl)(6-(methyl(7H-pyrrolo[2,3-d]pyrimidin-4-yl)amino)-2-azaspiro[3.3]heptan-2-yl)methanon] | 1 to 10 | 1 to 10 | 0.01 to 0.1 |
| CNCC(=O)N1CCC2(CCC(N(C)c3ncnc4[nH]ccc34)CC2)CC1 [Compound 97, 2-Methylamino-1-{9-[methyl-(7H-pyrrolo[2,3-d]pyrimidin-4-yl)-amino]-3-aza-spiro[5.5]undec-3-yl}-ethanone HCl salt] | 1 to 10 | 0.1 to 1 | 0.1 to 1 |
| CN(c1ncnc2[nH]ccc12)C1CC2(C1)CN(C(=O)Cc1ccc(C#N)cc1)C2 [Compound 15, 4-(2-(6-(methyl(7H-pyrrolo[2,3-d]pyrimidin-4-yl)amino)-2-azaspiro[3.3]heptan-2-yl)-2-oxoethyl)benzonitrile] | 1 to 10 | 1 to 10 | 0.1 to 1 |
| CN(c1ncnc2[nH]ccc12)C1CC2(C1)CN(C(=O)CCC(F)(F)F)C2 [Compound 21, 4,4,4-trifluoro-1-(6-(methyl(7H-pyrrolo[2,3-d]pyrimidin-4-yl)amino)-2-azaspiro[3.3]heptan-2-yl)butan-1-one] | 1 to 10 | 0.1 to 1 | 0.01 to 0.1 |
| CN(c1ncnc2[nH]ccc12)C1CC2(C1)CN(C(=O)c1cccnc1)C2 [Compound 9, (6-(methyl(7H-pyrrolo[2,3-d]pyrimidin-4-yl)amino)-2-azaspiro[3.3]heptan-2-yl)(pyridin-3-yl)methanone] | 1 to 10 | 0.1 to 1 | 0.01 to 0.1 |
